Test results from US9890368B2, “Polypeptide fragments comprising endonuclease activity and their use” (priority 2008, dated 2018).

How the values were obtained:
PA-Nter (SEQ ID NO: 22) = PA-Nter (SEQ ID NO: 22) (Influenza A virus, UniProt P31343, G154E); format: binding, Influenza A virus A/Victoria/3/1975 (H3N2)
[1] = molecular target: PA-Nter (SEQ ID NO: 22) endonuclease (Influenza A virus, UniProt P31343, G154E); format: biochemical, Influenza A virus A/Victoria/3/1975 (H3N2)

Row | Compound | increase in thermal stability upon addition of divalent cation (PA-Nter (SEQ ID NO: 22)) | inhibition of endonuclease activity on both RNA and DNA [1] | apparent melting temperature (PA-Nter (SEQ ID NO: 22)) | effect on thermal stability of metal-free enzyme (PA-Nter (SEQ ID NO: 22)) | thermal stability of PA-Nter in the presence of MnCl2 (PA-Nter (SEQ ID NO: 22))
1 | magnesium ions | to a lesser extent |  |  |  | 
2 | calcium | to a lesser extent |  |  |  | 
3 | O=C(O)C(=O)CC(=O)c1ccccc1 [DPBA, 2,4-Dioxo-4-phenylbutanoic acid] |  | inhibited in a dose dependent manner | 65 °C | no effect | further stabilizes
4 | manganese ions |  |  | 57 °C |  | 
